These compounds were tested against T1, human RORγt (Ligand Binding Domain) (Homo sapiens, UniProt P51449) (assay: Fluorescence Polarization (FP) Assay). Settings: 100 nM human RORγt LBD, 25 nM TAMRA probe, values are activity range bounds.
T1 construct: purchased Crelux (Planegg, Germany) batch no PC5032-1
T1 sequence (P51449 269-508 limits assumed): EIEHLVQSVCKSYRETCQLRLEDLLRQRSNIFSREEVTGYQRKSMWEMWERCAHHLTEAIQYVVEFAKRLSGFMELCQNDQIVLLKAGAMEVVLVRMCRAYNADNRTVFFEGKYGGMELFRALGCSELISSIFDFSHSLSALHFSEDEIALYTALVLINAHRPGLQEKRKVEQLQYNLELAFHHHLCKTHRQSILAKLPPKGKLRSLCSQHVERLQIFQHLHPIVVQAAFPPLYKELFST
Procedure: (§1) The activity of the compounds was evaluated using a Fluorescence Polarization (FP) Assay and, RORγ Reporter assay (also referred to as Gal4 assay). The FP assay is an in vitro assay monitoring binding within the ligand binding pocket. The RORγ and the Th17 assays (another suitable assay) are both cell-based assays monitoring functional activity of the compound assayed.
Fluorescence Polarization (FP) Assay
The total volume was 25 μl, in a black Perkin Elmer OptiPlate. As negative control, 1 μl DMSO was used. […] The probe is a fluorescently labeled (TAMRA) RORγt ligand identified by Nuevolution with a total molecular weight of 910 g/mole as shown in Graph A in FIG. 1.

SMILES	IC50
Fc1c(NCc2ccsc2)ncnc1N(Cc1ccc(C(F)(F)F)cc1)C1CC1 [Example A21, N6-cyclopropyl-5-fluoro-N4-(3-thienylmethyl)-N6-[[4-(trifluoromethyl)phenyl]methyl] pyrimidine-4,6-diamine]	< 1000 nM
OCCC1(CNc2ncnc(N(Cc3ccc(C(F)(F)F)cc3)C3CC3)c2F)CCOCC1 [Example A22, 2-[4-[[[6-[cyclopropyl-[[4-(trifluoromethyl)phenyl]methyl]amino]-5-fluoro-pyrimidin-4-yl]amino]methyl]tetrahydropyran-4-yl]ethanol]	< 500 nM
Fc1c(NCc2ccc(-c3nnn[nH]3)cc2)ncnc1N(Cc1ccc(C(F)(F)F)cc1)C1CC1 [Example A23, N6-cyclopropyl-5-fluoro-N4-[[4-(1H-tetrazol-5-yl)phenyl]methyl]-N6-[[4-(trifluoromethyl)phenyl]methyl] pyrimidine-4,6-diamine]	< 500 nM
COc1ccc(CN(C)c2ncnc(N(Cc3ccc(C(F)(F)F)cc3)C3CC3)c2F)cn1 [Example A24, N6-cyclopropyl-5-fluoro-N4-[(6-methoxy-3-pyridyl)methyl]-N4-methyl-N6-[[4-(trifluoromethyl)phenyl]methyl] pyrimidine-4,6-diamine]	< 500 nM
COc1ccc(CNc2ncnc(N(Cc3ccc(C(F)(F)F)cc3)C3CC3)c2F)cn1 [Example A25, N6-cyclopropyl-5-fluoro-N4-[(6-methoxy-3-pyridyl)methyl]-N6-[[4-(trifluoromethyl)phenyl]methyl] pyrimidine-4,6-diamine]	< 500 nM
OCC1(CNc2ncnc(N(Cc3ccc(C(F)(F)F)cc3)C3CC3)c2F)COC1 [Example A26, [3-[[[6-[cyclopropyl-[[4-(trifluoromethyl)phenyl]methyl]amino]-5-fluoro-pyrimidin-4-yl]amino]methyl]oxetan-3-yl]methanol]	< 500 nM
CN(C)C(=O)C1(CNc2ncnc(N(Cc3ccc(C(F)(F)F)cc3)C3CC3)c2F)CCCC1 [Example A27, 1-[[[6-[cyclopropyl-[[4-(trifluoromethyl)phenyl]methyl]amino]-5-fluoro-pyrimidin-4-yl]amino]methyl]-N,N-dimethyl-cyclopentanecarboxamide]	< 1000 nM
Fc1c(NCC2CCCS2)ncnc1N(Cc1ccc(C(F)(F)F)cc1)C1CC1 (stereo not shown) [Example A28, N6-cyclopropyl-5-fluoro-N4-(tetrahydrothiophen-2-ylmethyl)-N6-[[4-(trifluoromethyl)phenyl]methyl] pyrimidine-4,6-diamine]	< 1000 nM
COC1(CNc2ncnc(N(Cc3ccc(C(F)(F)F)cc3)C3CC3)c2F)CCOCC1 [Example A29, N6-cyclopropyl-5-fluoro-N4-[(4-methoxytetrahydropyran-4-yl)methyl]-N6-[[4-(trifluoromethyl)phenyl]methyl] pyrimidine-4,6-diamine]	< 500 nM
OC1(CNc2ncnc(N(Cc3ccc(C(F)(F)F)cc3)C3CC3)c2F)CCSCC1 [Example A30, 4-[[[6-[cyclopropyl-[[4-(trifluoromethyl)phenyl]methyl]amino]-5-fluoro-pyrimidin-4-yl]amino]methyl]tetrahydrothiopyran-4-ol]	< 500 nM
CS(=O)(=O)CC1(CNc2ncnc(N(Cc3ccc(C(F)(F)F)cc3)C3CC3)c2F)CCOCC1 [Example A31, N6-cyclopropyl-5-fluoro-N4-[[4-(methylsulfonylmethyl)tetrahydro-pyran-4-yl]methyl]-N6-[[4-(trifluoromethyl)phenyl]methyl] pyrimidine-4,6-diamine]	< 500 nM
CC1CCC(CNc2ncnc(N(Cc3ccc(C(F)(F)F)cc3)C3CC3)c2F)CC1 (stereo not shown) [Example A32, N6-cyclopropyl-5-fluoro-N4-[(4-methylcyclohexyl)methyl]-N6-[[4-(trifluoromethyl)phenyl]methyl] pyrimidine-4,6-diamine]	< 500 nM
CC(C)C1CCC(CNc2ncnc(N(Cc3ccc(C(F)(F)F)cc3)C3CC3)c2F)CC1 (stereo not shown) [Example A33, N6-cyclopropyl-5-fluoro-N4-[(4-isopropylcyclohexyl)methyl]-N6-[[4-(trifluoromethyl)phenyl]methyl] pyrimidine-4,6-diamine]	< 500 nM
O=S1(=O)CCC(CNc2ncnc(N(Cc3ccc(C(F)(F)F)cc3)C3CC3)c2F)CC1 [Example A34, N6-cyclopropyl-N4-[(1,1-dioxothian-4-yl)methyl]-5-fluoro-N6-[[4-(trifluoromethyl)phenyl]methyl] pyrimidine-4,6-diamine]	< 500 nM
O=S1(=O)CCOC(CNc2ncnc(N(Cc3ccc(C(F)(F)F)cc3)C3CC3)c2F)C1 (stereo not shown) [Example A35, N6-cyclopropyl-N4-[(4,4-dioxo-1,4-oxathian-2-yl)methyl]-5-fluoro-N6-[[4-(trifluoromethyl)phenyl]methyl] pyrimidine-4,6-diamine]	< 500 nM
O=C(O)CC1CCC(CNc2ncnc(N(Cc3ccc(C(F)(F)F)cc3)C3CC3)c2F)CC1 (stereo not shown) [Example A36, 2-[4-[[[6-[cyclopropyl-[[4-(trifluoromethyl)phenyl]methyl]amino]-5-fluoro-pyrimidin-4-yl]amino]methyl]cyclohexyl]acetic acid]	< 500 nM
CS(=O)(=O)Cc1ccc(CNc2ncnc(N(Cc3ccc(C(F)(F)F)cc3)C3CC3)c2F)cc1 [Example A37, N4-cyclopropyl-5-fluoro-N6-[[4-(methylsulfonylmethyl)phenyl]methyl]-N4-[[4-(trifluoromethyl)phenyl]methyl] pyrimidine-4,6-diamine]	< 500 nM
COc1cc(CNc2ncnc(N(Cc3ccc(C(F)(F)F)cc3)C3CC3)c2F)ccn1 [Example A38, N4-cyclopropyl-5-fluoro-N6-[(2-methoxy-4-pyridyl)methyl]-N4-[[4-(trifluoromethyl)phenyl]methyl] pyrimidine-4,6-diamine]	< 500 nM
N#Cc1ccc(CNc2ncnc(N(Cc3ccc(C(F)(F)F)cc3)C3CC3)c2F)cc1 [Example A39, 4-[[[6-[cyclopropyl-[[4-(trifluoromethyl)phenyl]methyl]amino]-5-fluoro-pyrimidin-4-yl]amino]methyl]benzonitrile]	< 500 nM
Fc1c(NCc2ccccc2)ncnc1N(Cc1ccc(C(F)(F)F)cc1)C1CC1 [Example A40, N6-benzyl-N4-cyclopropyl-5-fluoro-N4-[[4-(trifluoromethyl)phenyl]methyl] pyrimidine-4,6-diamine]	< 1000 nM

The compounds below were run against T2, ligand binding domain of human RORγ (Homo sapiens, UniProt P51449) (assay: RORγ Reporter Assay (Gal4)). Settings: HEK-293T, 1 μM test compound, HEK293t RORγ reporter cells, 24 hour; read-out: Gal4 activity range @ 1 μM (% inhibition).
T2 construct: host or cells: HEK293t
T2 sequence (P51449 269-508 limits assumed): T1 sequence (P51449 269-508 limits assumed)
Assay type: cell-based
Procedure: as §1
RORγ Reporter Assay (Gal4)
Cell-based RORγ functional assays were performed using a commercially available assay product (INDIGO Biosciences, State College, Pa., USA; product # IB04001). The RORγ reporter cells are HEK293t cells transfected with one vector that provides high level constitutive expression of a hybrid protein comprised of the yeast Gal4-DNA binding domain fused to the ligand binding domain of human RORγ, and a second vector comprising the firefly luciferase cDNA functionally linked to the upstream activation sequence (UAS) of yeast Gal4. A suspension of RORγ Reporter Cells was prepared using the protocol and culture medium provided in the kit product, and 100 μl of the Reporter Cell suspension was then dispensed into wells of a white, collagen-treated, 96-well assay plate. Concentrated stocks of test compounds were prepared in DMSO, then further diluted using media provided in the kit to generate ‘2×-concentration’ treatment media. 100 μl of medium for each respective treatment concentration dispensed into triplicate assay wells, thereby combining with the reporter cells. All media formulations contained 10% charcoal stripped Fetal Bovine Serum, but are otherwise proprietary to INDIGO Biosciences. Final treatment concentrations for each test compound were 1,000 nM and 100 nM, each with 0.1% residual DMSO. Separate control treatments were media supplemented with vehicle only (0.1% DMSO) to determine the constitutive level of RORγ activity in the reporter cells, and the reference inverse-agonist ursolic acid (f.c. 6,000 nM to 8.2 nM in 3-fold decrements) to establish a positive control inverse-agonist dose response. Assay plates were placed in a 37° C., 5% CO2, 85% humidity incubator for 24 hour. Treatment media were then discarded, 100 μl of luciferase detection reagent was added to each well, and relative light units (RLUs) were quantified from each assay well using a plate reading luminometer. Values of average RLU+/−standard deviation were computed for all treatment sets, followed by the calculations of fold-reduction: [Average RLUVehicle/Average RLUTest Cmpd]. Percent-reduction of RORγ activity in response to respective test compound treatments was calculated: [100*(1−[Ave RLUTest Cmpd/Ave RLUVehicle)] where the theoretical minimum reduction (0% reduction) derives from Vehicle treatment only, no treatment compound. In some aspects it may be of interest to provide compounds with selective modulation of RORγ for example compounds that are selective to RORγ over RORα, compounds that are selective for RORγ versus RORPβ, and compounds that are selective for RORγ versus BOTH RORα and RORPβ. It may also be of interest to provide compounds that are selective for RORγ versus further nuclear hormone receptors such as CAR1, FXR, GR, LXRα, LXRβ, PPARα, PXR, RARα, RXRα, TRα, VDR. It is apparent to those skilled in the art that these nuclear hormone receptors are merely examples, and that selectivity against other nuclear receptors may also be of interest. It may for example be of interest to provide compounds that modulate RORγ and one or more further nuclear hormone receptors, as well as compounds that modulate both RORγ and RORα, or RORγ and RORβ. It may also be of interest to provide compounds that modulate RORγ and BOTH RORα and RORP, as well as compounds that modulate both RORγ and one or more further nuclear hormone receptors such as CAR1, FXR, GR, LXRα, LXRβ, PPARα, PXR, RARα, RXRα, TRα, VDR. It is apparent to those skilled in the art that these nuclear hormone receptors are merely examples, and that modulation of even other nuclear receptors may also be of interest. […]

SMILES	inhibition at 1 µM
CS(=O)(=O)CC1(CNc2ncnc(N(Cc3ccc(C(F)(F)F)cc3)C3CC3)c2F)CCOCC1 [Example A49, N6-cyclopropyl-5-fluoro-N4-[[4-(methylsulfonylmethyl)tetrahydro-pyran-4-yl]methyl]-N6-[[4-(trifluoromethyl)phenyl]methyl] pyrimidine-4,6-diamine]	> 80%

Same assay, conditions: RORγ Reporter Assay (Gal4), HEK293t reporter cells, compound at 0.1 μM; values are activity range bounds

SMILES	Gal4 activity range @ 0.1 μM (% inhibition)
CS(=O)(=O)CC1(CNc2ncnc(N(Cc3ccc(C(F)(F)F)cc3)C3CC3)c2F)CCOCC1 [Example A49, N6-cyclopropyl-5-fluoro-N4-[[4-(methylsulfonylmethyl)tetrahydro-pyran-4-yl]methyl]-N6-[[4-(trifluoromethyl)phenyl]methyl] pyrimidine-4,6-diamine]	>80 % inhibition

Reference: patent US10683293B2, “Optionally fused heterocyclyl-substituted derivatives of pyrimidine useful for the treatment of inflammatory, metabolic, oncologic and autoimmune diseases” (NUEVOLUTION A/S, priority 2014, dated 2020)
